According to patent US20250101042A1, “KRAS G12D MODULATING COMPOUNDS” (Gilead Sciences, Inc., priority 2023, published 2025):

Key:
GP2D (KRAS G12D) cells = assay: 2D Cell Viability Assay (CellTiter-Glo); format: cell-based; conditions: GP2d, 96 h, 4 days, CellTiter-Glo luminescence
Method: Example B. 2D Cell Viability Assay
Compounds were tested in a 384-well format for their ability to inhibit the viability of GP2D (KRAS G12D) cells in 2D assays. Compounds were serially diluted (1:3) in DMSO. The LabCyte ECHO Acoustic dispenser system was used to pre-spot assay plates with 200 nL of test molecule per well. 1000 cells/well (40 μL volume per well) in RPMI medium with 10% FBS, and Penicillin-Streptomycin-Glutamine were plated in pre-spotted 384-well plates (Greiner, Catalog #781076) on the BioTEK EL406 liquid dispenser with a 5 μL dispensing cassette (BioTek 7170011). The plates were incubated at 37° C., 5% CO2 for 4 days before addition of CellTiter-Glo (CTG) reagent and measurement of luminescence signal. EC50 values were defined as the compound concentration that causes a 50% decrease in luminescence signal and were calculated using a sigmoidal dose-response model to generate curve fits.

GDP-loaded KRAS G12D = GDP-loaded KRAS G12D (Homo sapiens, UniProt P01116, G12D); assay: KRAS G12D (GDP) Biochemical Assay (TR-FRET probe displacement); format: binding; conditions: 0.5 nM enzyme, 2 hours at room temperature
GDP-loaded KRAS G12D, sequence (P01116 1-188 isoform P01116-2 G12D): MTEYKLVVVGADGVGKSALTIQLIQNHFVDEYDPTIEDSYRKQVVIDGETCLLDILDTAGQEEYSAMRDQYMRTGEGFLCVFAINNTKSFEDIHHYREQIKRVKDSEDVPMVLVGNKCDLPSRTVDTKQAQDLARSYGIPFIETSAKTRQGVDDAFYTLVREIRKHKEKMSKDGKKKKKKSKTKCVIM
Method: Example A. KRAS G12D (GDP) Biochemical Assay
Compounds were tested for binding to GDP-loaded KRAS G12D in a 384-well assay format using a TR-FRET probe displacement assay in buffer consisting of 50 mM Hepes (pH 7.4), 150 mM NaCl, 5 mM MgCl2 and 0.005% Tween-20. […] Compounds were serially diluted (1:3) in DMSO. The LabCyte ECHO Acoustic dispenser system was used to pre-spot the assay plates (384-well Non-Binding Surface plates, Corning, Catalog #3824) with 50 nL of compound. The compounds were pre-incubated with 5 μL of 2× final enzyme concentration for 30 minutes before adding 5 μL of 2× final concentration of Eu-streptavidin and TR-FRET probe (10 μL final reaction volume). The plates were incubated at room temperature for 2 hours before measuring TR-FRET ratio on the Envision plate reader. IC50 values were defined as the compound concentration that causes a 50% decrease in TR-FRET ratio and were calculated using a sigmoidal dose-response model to generate curve fits.

SMILES	EC50 (GP2D (KRAS G12D) cells)	IC50 (GDP-loaded KRAS G12D)
C#Cc1c(F)ccc2cc(N)nc(-c3c(Cl)c4c5c(nc(OC[C@@]67CCCN6C[C@H](F)C7)nc5c3F)N3C[C@H]5CC[C@H](N5)[C@H]3CC4)c12 [Example 23, 1-((1S,4R,14aR)-12-chloro-10-fluoro-8-(((2R,7aS)-2-fluorotetrahydro-1H-pyrrolizin-7a(5H)-yl)methoxy)-1,2,3,4,5,13,14,14a-octahydro-1,4-epiminoazepino[1′,2′:1,7]azepino[2,3,4-de]quinazolin-11-yl)-8-ethynyl-7-fluoroisoquinolin-3-amine]	6.1 nM	0.16 nM
Nc1cc(Cl)c(C(F)F)c(-c2nc3c4c(nc(OC[C@@]56CCCN5C[C@H](F)C6)nc4c2F)N2C[C@H]4CC[C@H](N4)[C@H]2CCC3)n1 [Example 24, 4-chloro-5-(difluoromethyl)-6-((6aR,7S,10R)-1-fluoro-13-(((2R,7aS)-2-fluorotetrahydro-1H-pyrrolizin-7a(5H)-yl)methoxy)-5,6,6a,7,8,9,10,11-octahydro-4H-3,11a,12,14,15-pentaaza-7,10-methanocyclohepta[4,5]cycloocta[1,2,3-de]naphthalen-2-yl)pyridin-2-amine]	> 100 nM	11 nM
N#Cc1c(N)sc2cccc(-c3c(F)c4c5c(nc(OC[C@@]67CCCN6C[C@H](F)C7)nc5c3F)N3C[C@H]5CC[C@H](N5)[C@H]3CC4)c12 [Example 25, 2-amino-4-((1S,4R,14aR)-10,12-difluoro-8-(((2R,7aS)-2-fluorotetrahydro-1H-pyrrolizin-7a(5H)-yl)methoxy)-1,2,3,4,5,13,14,14a-octahydro-1,4-epiminoazepino[1′,2′:1,7]azepino[2,3,4-de]quinazolin-11-yl)benzo[b]thiophene-3-carbonitrile]	1.6 nM	0.12 nM
C#Cc1c(F)ccc2cc(N)nc(-c3nc4c5c(nc(OC[C@@]67CCCN6C[C@H](F)C7)nc5c3F)N3C[C@H]5CC[C@H](N5)[C@H]3CCC4)c12 [Example 26, 8-ethynyl-7-fluoro-1-((6aR,7S,10R)-1-fluoro-13-(((2R,7aS)-2-fluorotetrahydro-1H-pyrrolizin-7a(5H)-yl)methoxy)-5,6,6a,7,8,9,10,11-octahydro-4H-3,11a,12,14,15-pentaaza-7,10-methanocyclohepta[4,5]cycloocta[1,2,3-de]naphthalen-2-yl)isoquinolin-3-amine]	4.1 nM	0.4 nM
C#Cc1c(F)ccc2cc(N)nc(-c3c(F)c4c5c(nc(OC[C@@]67CCCN6C[C@H](F)C7)nc5c3F)N3C[C@H]5CC[C@H](N5)[C@H]3CCC4)c12 [Example 61, (S)-1-((1S,4R,15aR)-10,12-difluoro-8-(((2R,7aS)-2-fluorotetrahydro-1H-pyrrolizin-7a(5H)-yl)methoxy)-2,3,4,5,13,14,15,15a-octahydro-1H-1,4-epiminoazepino[1′,2′:1,8]azocino[2,3,4-de]quinazolin-11-yl)-8-ethynyl-7-fluoroisoquinolin-3-amine]	0.88 nM	0.02 nM
